Organism: Rattus norvegicus
Experiment: DrugMatrix - Regimen: Daily Repeat
Type: toxicity, organism-based, Sprague-Dawley
Set-up: regimen Daily Repeat, gender Male, age 6-8 weeks
Details: in vivo, po, 740 mg/kg, route oral GAVAGE, dose level High, vehicle .5 % CMC; for ABSOLUTE BASOPHIL / ABSOLUTE EOSINOPHIL / ABSOLUTE LYMPHOCYTE / ABSOLUTE MONOCYTE / ABSOLUTE SEGMENTED NEUTROPHIL / BASOPHIL / EOSINOPHIL / ERYTHROCYTE COUNT / HEMATOCRIT / HEMOGLOBIN / LEUKOCYTE COUNT / LYMPHOCYTE / MEAN CORPUSCULAR HEMOGLOBIN / MEAN CORPUSCULAR HEMOGLOBIN CONCENTRATION / MEAN CORPUSCULAR VOLUME / MONOCYTE / NEUTROPHIL / NUCLEATED RED BLOOD CELLS / PLATELET COUNT: tissue Blood; for ALANINE AMINOTRANSFERASE / ALBUMIN / ALKALINE PHOSPHATASE / ASPARTATE AMINOTRANSFERASE / BLOOD UREA NITROGEN / CARBON DIOXIDE / CHLORIDE / CHOLESTEROL / CREATININE / GLUCOSE / LACTATE DEHYDROGENASE / LIPASE / PHOSPHORUS / POTASSIUM / SODIUM / TOTAL BILIRUBIN / TOTAL PROTEIN / URIC ACID: tissue Plasma

## COc1ccccc1[N+](=O)[O-] [2-NITROANISOLE]
72 h, time 3 day
  ABSOLUTE BASOPHIL: 0 CELLS/uL
  ABSOLUTE EOSINOPHIL: 109.33 CELLS/uL
  ABSOLUTE LYMPHOCYTE: 13522 CELLS/uL
  ABSOLUTE MONOCYTE: 1089.33 CELLS/uL
  ABSOLUTE SEGMENTED NEUTROPHIL: 2512.67 CELLS/uL
  BASOPHIL: 0%
  EOSINOPHIL: 0.67%
  ERYTHROCYTE COUNT: 5.38 x10E6/uL
  HEMATOCRIT: 32.17%
  HEMOGLOBIN: 11.9 G/DL
  LEUKOCYTE COUNT: 17.23 x10E3/uL
  LYMPHOCYTE: 78.67%
  MEAN CORPUSCULAR HEMOGLOBIN: 22.1 pg
  MEAN CORPUSCULAR HEMOGLOBIN CONCENTRATION: 37 G/DL
  MEAN CORPUSCULAR VOLUME: 59.83 fL
  MONOCYTE: 6.33%
  NEUTROPHIL: 14.33%
  NUCLEATED RED BLOOD CELLS: 0 /100WBC
  PLATELET COUNT: 1241.67 x10E3/uL
  ALANINE AMINOTRANSFERASE: 84.67 u/L
  ALBUMIN: 4.37 G/DL
  ALKALINE PHOSPHATASE: 448.33 u/L
  ASPARTATE AMINOTRANSFERASE: 103.67 u/L
  BLOOD UREA NITROGEN: 14 mg/dL
  CARBON DIOXIDE: 22.67 mmol/L
  CHLORIDE: 101.67 MEQ/L
  CHOLESTEROL: 95.67 mg/dL
  CREATININE: 0.18 mg/dL
  GLUCOSE: 145 mg/dL
  LACTATE DEHYDROGENASE: 412.67 u/L
  LIPASE: 9.33 u/L
  PHOSPHORUS: 11.6 mg/dL
  POTASSIUM: 6.07 MEQ/L
  SODIUM: 142.23 MEQ/L
  TOTAL BILIRUBIN: 0.23 mg/dL
  TOTAL PROTEIN: 5.93 G/DL
  URIC ACID: 1.7 mg/dL
120 h, time 5 day
  ABSOLUTE BASOPHIL: 0 CELLS/uL
  ABSOLUTE EOSINOPHIL: 0 CELLS/uL
  ABSOLUTE LYMPHOCYTE: 12322.33 CELLS/uL
  ABSOLUTE MONOCYTE: 57 CELLS/uL
  ABSOLUTE SEGMENTED NEUTROPHIL: 3254 CELLS/uL
  BASOPHIL: 0%
  EOSINOPHIL: 0%
  ERYTHROCYTE COUNT: 5.04 x10E6/uL
  HEMATOCRIT: 30.5%
  HEMOGLOBIN: 10.83 G/DL
  LEUKOCYTE COUNT: 15.63 x10E3/uL
  LYMPHOCYTE: 79%
  MEAN CORPUSCULAR HEMOGLOBIN: 21.5 pg
  MEAN CORPUSCULAR HEMOGLOBIN CONCENTRATION: 35.5 G/DL
  MEAN CORPUSCULAR VOLUME: 60.6 fL
  MONOCYTE: 0.33%
  NEUTROPHIL: 20.67%
  NUCLEATED RED BLOOD CELLS: 1 /100WBC
  PLATELET COUNT: 1041 x10E3/uL
  ALANINE AMINOTRANSFERASE: 76.67 u/L
  ALBUMIN: 4.67 G/DL
  ALKALINE PHOSPHATASE: 401.67 u/L
  ASPARTATE AMINOTRANSFERASE: 101 u/L
  BLOOD UREA NITROGEN: 14.33 mg/dL
  CARBON DIOXIDE: 33 mmol/L
  CHLORIDE: 98.33 MEQ/L
  CHOLESTEROL: 92.33 mg/dL
  CREATININE: 0.15 mg/dL
  GLUCOSE: 127 mg/dL
  LACTATE DEHYDROGENASE: 114.33 u/L
  LIPASE: 9.67 u/L
  PHOSPHORUS: 12.23 mg/dL
  POTASSIUM: 6 MEQ/L
  SODIUM: 144.43 MEQ/L
  TOTAL BILIRUBIN: 0.23 mg/dL
  TOTAL PROTEIN: 6.53 G/DL
  URIC ACID: 0.9 mg/dL
[…], time 14 day
  ABSOLUTE BASOPHIL: 0 CELLS/uL
  ABSOLUTE EOSINOPHIL: 157.6 CELLS/uL
  ABSOLUTE LYMPHOCYTE: 18755.2 CELLS/uL
  ABSOLUTE MONOCYTE: 504.8 CELLS/uL
  ABSOLUTE SEGMENTED NEUTROPHIL: 3782.4 CELLS/uL
  BASOPHIL: 0%
  EOSINOPHIL: 0.8%
  ERYTHROCYTE COUNT: 4.9 x10E6/uL
  HEMATOCRIT: 34.42%
  HEMOGLOBIN: 12.78 G/DL
  LEUKOCYTE COUNT: 23.2 x10E3/uL
  LYMPHOCYTE: 80.8%
  MEAN CORPUSCULAR HEMOGLOBIN: 26.14 pg
  MEAN CORPUSCULAR HEMOGLOBIN CONCENTRATION: 37.14 G/DL
  MEAN CORPUSCULAR VOLUME: 70.28 fL
  MONOCYTE: 2.2%
  NEUTROPHIL: 16.2%
  NUCLEATED RED BLOOD CELLS: 0 /100WBC
  PLATELET COUNT: 1231 x10E3/uL
  ALANINE AMINOTRANSFERASE: 73.4 u/L
  ALBUMIN: 4.84 G/DL
  ALKALINE PHOSPHATASE: 271.2 u/L
  ASPARTATE AMINOTRANSFERASE: 85.6 u/L
  BLOOD UREA NITROGEN: 17 mg/dL
  CARBON DIOXIDE: 31.6 mmol/L
  CHLORIDE: 99.2 MEQ/L
  CHOLESTEROL: 77 mg/dL
  CREATININE: 0.21 mg/dL
  GLUCOSE: 125 mg/dL
  LACTATE DEHYDROGENASE: 356.6 u/L
  LIPASE: 9 u/L
  PHOSPHORUS: 11.68 mg/dL
  POTASSIUM: 6.84 MEQ/L
  SODIUM: 142.78 MEQ/L
  TOTAL BILIRUBIN: 0.28 mg/dL
  TOTAL PROTEIN: 6.82 G/DL
  URIC ACID: 1.6 mg/dL
